Test results reported in patent US20250154686A1, “COMPOUND LIBRARY” (CHUGAI SEIYAKU KABUSHIKI KAISHA, priority 2021, published 2025).

Target: T1, Bcl-2 protein (Recombinant Human Bcl-2 Protein) (Homo sapiens, UniProt P10415)
T1 construct: purchased Novus Biologicals NBP2-34889
Experiment: AS-MS evaluation of binding of the Example 4 mixture library (1200 compounds/well) to Bcl-2, ASMS ratio (%)
Details: mixture library, value belongs to the MS peak assigned to the compound; for ASMS ratio (%) n = 1: replicate n = 1; for ASMS ratio (%) n = 2: replicate n = 2
Procedure, shortened: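 ASMS ratio (%) derived from reverse-phase LC/MS of three samples: Bcl-2 (20 μM) incubation after SEC, protein-free standard without SEC, and protein-free blank after SEC. Compounds were pooled at 1200/well, 20 nM each, incubated 1 h, 23 °C, dark, in Tris-HCl pH 7.4 buffer with Tween-20 and DTT.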

T1 sequence (P10415 whole entry): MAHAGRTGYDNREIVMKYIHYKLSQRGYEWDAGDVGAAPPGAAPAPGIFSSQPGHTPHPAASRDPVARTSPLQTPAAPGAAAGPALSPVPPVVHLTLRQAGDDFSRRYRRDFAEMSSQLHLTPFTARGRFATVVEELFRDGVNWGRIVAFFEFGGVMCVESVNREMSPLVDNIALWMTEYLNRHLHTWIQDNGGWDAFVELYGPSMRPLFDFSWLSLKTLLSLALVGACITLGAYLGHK

Row | SMILES | ASMS ratio (%) n = 1 [%] | ASMS ratio (%) n = 2 [%]
1 | CCOc1cccc(-c2cc(CN3CCN(c4ccc(C(=O)NS(C)(=O)=O)nn4)CC3)cc(OC(F)(F)F)c2)c1 [Compound B2I089-01, 6-[4-[[3-(3-Ethoxyphenyl)-5-(trifluoromethoxy)phenyl]methyl]piperazin-1-yl]-N-methylsulfonylpyridazine-3-carboxamide] | 1.4 | 0.0
2 | CCOc1cncc(-c2cc(CN3CCN(c4ccc(C(=O)NS(C)(=O)=O)nn4)CC3)cc(OC(F)(F)F)c2)c1 [Compound B2I090-01, 6-[4-[[3-(5-Ethoxypyridin-3-yl)-5-(trifluoromethoxy)phenyl]methyl]piperazin-1-yl]-N-methylsulfonylpyridazine-3-carboxamide] | 0.0 | 0.0
3 | CCOc1cncc(-c2ccc(CN3CCN(c4ccc(C(=O)NS(C)(=O)=O)nn4)CC3)c3ccccc23)c1 [Compound B2I092-01, 6-[4-[[4-(5-Ethoxypyridin-3-yl)naphthalen-1-yl]methyl]piperazin-1-yl]-N-methylsulfonylpyridazine-3-carboxamide] | 2.6 | 0.3
4 | CCOc1cncc(-c2csc(CN3CCN(c4ccc(C(=O)NS(C)(=O)=O)nn4)CC3)c2)c1 [Compound B2I094-01, 6-[4-[[4-(5-Ethoxypyridin-3-yl)thiophen-2-yl]methyl]piperazin-1-yl]-N-methylsulfonylpyridazine-3-carboxamide] | 0.0 | 0.0
5 | CCOc1cccc(C#Cc2ccccc2CN2CCN(c3ccc(C(=O)NS(C)(=O)=O)nn3)CC2)c1 [Compound B2I095-01, 6-[4-[[2-[2-(3-Ethoxyphenyl)ethynyl]phenyl]methyl]piperazin-1-yl]-N-methylsulfonylpyridazine-3-carboxamide] | 0.0 | 0.0
6 | CCOc1cncc(C#Cc2ccccc2CN2CCN(c3ccc(C(=O)NS(C)(=O)=O)nn3)CC2)c1 [Compound B2I096-01, 6-[4-[[2-[2-(5-Ethoxypyridin-3-yl)ethynyl]phenyl]methyl]piperazin-1-yl]-N-methylsulfonylpyridazine-3-carboxamide] | 0.0 | 0.0
7 | CCOc1cccc(-c2ccc(C(C)N3CCN(c4ccc(C(=O)NS(C)(=O)=O)cc4)CC3)cc2)c1 (stereo not shown) [Compound B2I097-01, 4-[4-[1-[4-(3-Ethoxyphenyl)phenyl]ethyl]piperazin-1-yl]-N-methylsulfonylbenzamide] | 0.8 | 1.4
8 | CCOc1cncc(-c2ccc(C(C)N3CCN(c4ccc(C(=O)NS(C)(=O)=O)cc4)CC3)cc2)c1 (stereo not shown) [Compound B2I098-01, 4-[4-[1-[4-(5-Ethoxypyridin-3-yl)phenyl]ethyl]piperazin-1-yl]-N-methylsulfonylbenzamide] | 0.0 | 0.0
9 | CCOc1cccc(-c2ccc(C(C)N3CCN(c4ccc(C(=O)NS(C)(=O)=O)cc4)CC3)c(F)c2)c1 (stereo not shown) [Compound B2I099-01, 4-[4-[1-[4-(3-Ethoxyphenyl)-2-fluorophenyl]ethyl]piperazin-1-yl]-N-methylsulfonylbenzamide] |  | 0.0
10 | CCOc1cccc(-c2csc(C(=O)N3CCN(c4ccc(C(=O)NS(=O)(=O)C(C)(C)C)nn4)CC3)c2)c1 [Compound B2L001-01] | −67.5 | 0.0
11 | CCOc1cncc(-c2csc(C(=O)N3CCN(c4ccc(C(=O)NS(=O)(=O)C(C)(C)C)nn4)CC3)c2)c1 [Compound B2L002-01, N-tert-Butylsulfonyl-6-[4-[4-(5-ethoxypyridin-3-yl)thiophene-2-carbonyl]piperazin-1-yl]pyridazine-3-carboxamide] | 0.0 | 0.0
12 | CCOc1cccc(-c2ccc(C(=O)N3CCN(c4ccc(C(=O)NS(=O)(=O)C(C)(C)C)nn4)CC3)cc2C)c1 [Compound B2L003-01] | 0.0 | 0.0
13 | CCOc1cncc(-c2ccc(C(=O)N3CCN(c4ccc(C(=O)NS(=O)(=O)C(C)(C)C)nn4)CC3)cc2C)c1 [Compound B2L004-01] | 5.5 | 9.3
14 | CCOc1cccc(-c2ccc(C(=O)N3CCN(c4ccc(C(=O)NS(=O)(=O)C(C)(C)C)nn4)CC3)cc2F)c1 [Compound B2L005-01] | 0.0 | 0.0
15 | CCOc1cncc(-c2ccc(C(=O)N3CCN(c4ccc(C(=O)NS(=O)(=O)C(C)(C)C)nn4)CC3)cc2F)c1 [Compound B2L006-01] | 0.0 | 0.0
16 | CCOc1cccc(C#Cc2ccccc2C(=O)N2CCN(c3ccc(C(=O)NS(=O)(=O)C(C)(C)C)nn3)CC2)c1 [Compound B2L007-01] | 0.0 | −1.0

Row | SMILES | ASMS ratio (%) n = 1 [%] | ASMS ratio (%) n = 2 [%]
17 | CCOc1cncc(C#Cc2ccccc2C(=O)N2CCN(c3ccc(C(=O)NS(=O)(=O)C(C)(C)C)nn3)CC2)c1 [Compound B2L008-01] | 0.0 | 0.0
18 | CCOc1cccc(C#Cc2cncc(C(=O)N3CCN(c4ccc(C(=O)NS(=O)(=O)C(C)(C)C)nn4)CC3)c2)c1 [Compound B2L009-01, N-tert-Butylsulfonyl-6-[4-[5-[2-(3-ethoxyphenyl)ethynyl]pyridine-3-carbonyl]piperazin-1-yl]pyridazine-3-carboxamide] | 0.0 | 0.0
19 | CCOc1cncc(C#Cc2cncc(C(=O)N3CCN(c4ccc(C(=O)NS(=O)(=O)C(C)(C)C)nn4)CC3)c2)c1 [Compound B2L010-01] | 0.0 | 0.0
20 | CCOc1cccc(-c2ccccc2CCC(=O)N2CCN(c3ccc(C(=O)NS(=O)(=O)C(C)(C)C)nn3)CC2)c1 [Compound B2L011-01] | 0.0 | 0.0
21 | CCOc1cncc(-c2ccccc2CCC(=O)N2CCN(c3ccc(C(=O)NS(=O)(=O)C(C)(C)C)nn3)CC2)c1 [Compound B2L012-01] | 4.3 | 7.3
22 | CCOc1cccc(-c2ccc(C(=O)N3CCN(c4ccc(C(=O)NS(=O)(=O)C(C)(C)C)nn4)CC3)c3ccccc23)c1 [Compound B2L013-01] | 0.0 | 0.0
23 | CCOc1cncc(-c2ccc(C(=O)N3CCN(c4ccc(C(=O)NS(=O)(=O)C(C)(C)C)nn4)CC3)c3ccccc23)c1 [Compound B2L014-01, N-tert-Butylsulfonyl-6-[4-[4-(5-ethoxypyridin-3-yl)naphthalene-1-carbonyl]piperazin-1-yl]pyridazine-3-carboxamide] | 0.3 | 0.5
24 | CCOc1cccc(-c2cc(C(=O)N3CCN(c4ccc(C(=O)NS(=O)(=O)C(C)(C)C)nn4)CC3)cc(C(C)(C)C)c2)c1 [Compound B2L015-01, 6-[4-[3-tert-Butyl-5-(3-ethoxyphenyl)benzoyl]piperazin-1-yl]-N-tert-butylsulfonylpyridazine-3-carboxamide] | 0.0 | 0.0
25 | CCOc1cncc(-c2cc(C(=O)N3CCN(c4ccc(C(=O)NS(=O)(=O)C(C)(C)C)nn4)CC3)cc(C(C)(C)C)c2)c1 [Compound B2L016-01, 6-[4-[3-tert-Butyl-5-(5-ethoxypyridin-3-yl)benzoyl]piperazin-1-yl]-N-tert-butylsulfonylpyridazine-3-carboxamide] | 0.0 | −5.4
26 | CCOc1cccc(-c2cc(C(=O)N3CCN(c4ccc(C(=O)NS(=O)(=O)C(C)(C)C)nn4)CC3)cc(C(F)(F)F)c2)c1 [Compound B2L017-01, N-tert-Butylsulfonyl-6-[4-[3-(3-ethoxyphenyl)-5-(trifluoromethyl)benzoyl]piperazin-1-yl]pyridazine-3-carboxamide] | 0.0 | 0.0
27 | CCOc1cncc(-c2cc(C(=O)N3CCN(c4ccc(C(=O)NS(=O)(=O)C(C)(C)C)nn4)CC3)cc(C(F)(F)F)c2)c1 [Compound B2L018-01, N-tert-Butylsulfonyl-6-[4-[3-(5-ethoxypyridin-3-yl)-5-(trifluoromethyl)benzoyl]piperazin-1-yl]pyridazine-3-carboxamide] | −1.9 | −2.5
28 | CCOc1cncc(C#Cc2cc(C(=O)N3CCN(c4ccc(C(=O)NS(=O)(=O)C(C)(C)C)nn4)CC3)cc(C(F)(F)F)c2)c1 [Compound B2L020-01, N-tert-Butylsulfonyl-6-[4-[3-[2-(5-ethoxypyridin-3-yl)ethynyl]-5-(trifluoromethyl)benzoyl]piperazin-1-yl]pyridazine-3-carboxamide] | 0.0 | 0.0
29 | CCOc1cccc(-c2cnn(-c3cc(C(=O)N4CCN(c5ccc(C(=O)NS(=O)(=O)C(C)(C)C)nn5)CC4)cc(C(F)(F)F)c3)c2)c1 [Compound B2L021-01, N-tert-Butylsulfonyl-6-[4-[3-[4-(3-ethoxyphenyl)pyrazol-1-yl]-5-(trifluoromethyl)benzoyl]piperazin-1-yl]pyridazine-3-carboxamide] | 0.0 | −14.9
30 | CCOc1cncc(-c2cnn(-c3cc(C(=O)N4CCN(c5ccc(C(=O)NS(=O)(=O)C(C)(C)C)nn5)CC4)cc(C(F)(F)F)c3)c2)c1 [Compound B2L022-01, N-tert-Butylsulfonyl-6-[4-[3-[4-(5-ethoxypyridin-3-yl)pyrazol-1-yl]-5-(trifluoromethyl)benzoyl]piperazin-1-yl]pyridazine-3-carboxamide] | 0.0 | 0.0
31 | CCOc1cccc(-c2csc(C(=O)N3CCN(c4ccc(C(=O)NS(=O)(=O)C(C)(C)C)cc4)CC3)c2)c1 [Compound B2L023-01, N-tert-Butylsulfonyl-4-[4-[4-(3-ethoxyphenyl)thiophene-2-carbonyl]piperazin-1-yl]benzamide] | 0.0 | 0.0
